The record followed here is patent US20140220094A1, “METHODS AND COMPOSITIONS FOR A LAPAROSCOPIC SURGERY” (Prelief Inc., priority 2009, published 2014).

This assay deals with laparoscopic ports. Nature of the assay: Laparoscopic cutaneous studies: treated vs untreated laparoscopic port sites. It is filed as in vivo, human. The note with it: another patient, 10 days after the treatment. As to the method: Cellerity® 10 topical lotion has been used in single patient multiple sites laparoscopic procedure studies. The studies compared healing time, severity of scar formation and inflammation at laparoscopic ports with and without CGP treatment.
The treatment was started within 24 hours after the laparoscopic surgery. The patient was instructed to allow the applied lotion to dry completely before applying their clothes and not to wash the treatment area for two hours after the application. This procedure was performed twice a day for three full weeks. […] The untreated ports were grossly inflamed, had tissue necrosis at the incision site and desquamation of epithelium. It also remained inflamed and the staple sites were still prominent and erythematous. At the incision line, a glassy layer of fibroblastic scar tissue was present.
Steri-Strips to the left side of the incisions, and leaving the midline left untreated. […] The untreated midline scar remained as inflamed and delayed in the healing process by 3-4 weeks, because the inflamed situation must resolve before the healing can occur. That delay appeared to have allowed more fibroblastic growth in the untreated scar, than was present on the treated scars.

As for calcium glycerophosphate [CGP], for the setting “left and right sides treated”, the “edematous changes vs untreated midline incision” value was “no edematous changes”, the “erythema vs untreated midline incision” value is listed as “less erythema” and the “inflammation vs untreated midline incision” value is “substantially less inflammation”. The “difference between direct application (right side) and application through Steri-Strips (left side)” value (treatment started 24 hours after surgery) is “no difference”.
